Results from PMC6711404 (Science signaling, 2017).
Several values for one entry are separate records, joined by “and”; a condition that tells them apart may be missing. Identical values can stand only once.

Columns and labels:
[1] = tested on: pRII (PKA-II signaling activity) in mouse sensory neurons; format: cell-based
[2] = tested on: pRII (PKA-II signaling activity) in rat sensory neurons; format: cell-based; conditions: for IC50: read-out: IC50 on pRII signals induced by 5-HT

| Compound | pRII response in Nav1.7-/- versus Nav1.7+/+ cultures [1] | Neuron subgroups in which pRII intensity is increased [2] | Effect on 5-HT-induced pRII intensity [2] | further results |
| --- | --- | --- | --- | --- |
| 8-bromoadenosine-3′,5′-cyclic monophosphorothioate, Sp-isomer, and acetoxymethyl ester [Sp-8-Br-cAMPS-AM] | the same | – | – | – |
| NCCc1c[nH]c2ccc(O)cc12 [5-HT] | the maximum amplitude but not the EC50 of the pRII response to 5-HT was reduced | predominately activated RIIβ(+) neurons | – | Numbers of RIIβ(+) neurons responsive to 5-HT [1]: 27.8 ± 1.3% and 19.1 ± 1.2%; Smaller sized sensory neurons with increased pRII signals [1]: 17% and 21% |
| C=C[C@@]1(C)CC(=O)[C@]2(O)[C@@]3(C)[C@@H](O)CCC(C)(C)[C@@H]3[C@H](O)[C@H](OC(C)=O)[C@@]2(C)O1 [Fsk, forskolin] | the same | all rat sensory neurons, both RIIβ(-) and RIIβ(+) neurons | – | Population of Fsk-responding cells [1]: 28% and 23% |
| Cn1cc(C(=O)OCC2CCN(CCNS(C)(=O)=O)CC2)c2ccccc21 [GR113808] | – | – | blocked | IC50 [2]: 8.6 nM |
| CCCCC[C@H](O)/C=C/[C@@H]1[C@H]2C/C(=C/CCCC(=O)O)O[C@H]2C[C@H]1O [PGI2, prostacyclin] | the same | predominately activated RIIβ(+) neurons | – | – |
| O=C1CC[C@@]2(O)[C@H]3Cc4ccc(O)c5c4[C@@]2(CCN3CC2CC2)[C@H]1O5 [naltrexone] | – | – | no effect | Effect on baseline amount of pRII [1]: Neither fentanyl nor naltrexone altered; Effect on basal pRII intensity [2]: no effect |
| CTOP | – | – | did not affect | Effect on DAMGO inhibition of the 5-HT-induced increase in pRII [2]: partially; Effect on basal pRII intensity [2]: did not affect |
| DAMGO | – | – | – | Inhibition of 5-HT-induced pRII: Nav1.7-/- versus wild-type neurons [1]: The IC50 to inhibit 5-HT-induced pRII was similar, but the maximum response was greater; IC50 [2]: 321 nM |
